From patent publication US20120100186A1, “NANOPARTICULATE-BASED CONTRACEPTIVE/ANTI-HIV COMPOSITION AND METHODS” (Washington University, priority 2010, published 2012) come the findings set out here.

Each structure is given as a SMILES string.

Data set [1] deals with Immortalized vaginal epithelial cells (VK2/E6E7). The experiment in a line: Vaginal epithelium toxicity (MTT viability). In kind it is cell-based. Conditions: concentrations of melittin as low as 1 μM, 12 hours at 37° C., FIG. 1A. The protocol:
For toxicity studies, 7500 cells were added to each well of a 96-well plate and allowed to attach for 24 hours. Melittin or melittin coated PFC-NP were then added and incubated with the cells for 12 hours at 37° C. with shaking at 500 rpm. Cells were washed once with media and incubated with MTT reagent for 4 hours. The colored product was solubilized in DMSO and absorbance at 570 nm was measured using a plate reader.
In more detail, cells were detached from a T75 flask by rinsing with 2-3 mL of trypsin, followed by adding 5 mL trypsin and incubating at 37° C. for 15 minutes. Five mL DMEM-FBS is then added to stop the trypsin, and the mixture is centrifuged at 900 rpm for 5 minutes, supernatant is removed and the cells are resuspended in 5 mL of Keratinocyte-Serum Free Media (Invitrogen™). The cells are diluted to approximately 75,000 cells/mL, and 100 μL of the cell suspension is added to each well of a 96-well plate and incubated for 24 hours at 37° C. The media are replaced with 100 μL of media containing the melittin or melittin-loaded nanoparticles at various concentrations and incubated for 12 hours at 37° C. with shaking at 500 rpm. […]
To each well containing 100 μL of media, 20 μL of MTT reagent (5 mg/mL MTT in PBS) were added, and incubated for 4 hours at 37° C. […] Absorbance is read at 570 nm using a plate reader.

Data set [2] deals with sperm. The experiment in a line: Sperm motility and viability (computer assisted sperm analysis). The format is cell-based, Human. As to conditions: 30 minutes at 37° C., 10 million sperm per mL; FIGS. 5A-5D. On the procedure: Human semen samples were obtained from the Washington University in vitro fertilization laboratory and stored at 37° C. until use. Semen was diluted in EmbryoMax® Human Tubal Fluid (HTF) (Millipore) and free melittin or melittin-coupled nanoparticles in HTF was added to achieve a final sperm concentration of 10 million sperm per mL. (For nanoparticles, samples were pipetted up and down 3 times every 10 minutes to keep the nanoparticles suspended.) Samples were incubated in 96-well plates for 30 minutes at 37° C. with shaking at 150 rpm to prevent sperm from settling. Afterwards, Viadent® stain (Hoechst 33258, Hamilton Thorne) was added to achieve a final stain concentration of 10 μg/mL and samples were incubated for an additional 5 minutes. Sperm motility and viability were determined using an IVOS® Computer Assisted Sperm Analyzer (Hamilton Thorne).

In the case of `CC[C@H](C)[C@H](NC(=O)CN)C(=O)NCC(=O)N[C@@H](C)C(=O)N[C@H](C(=O)N[C@@H](CC(C)C)C(=O)N[C@@H](CCCCN)C(=O)N[C@H](C(=O)N[C@@H](CC(C)C)C(=O)N[C@H](C(=O)N[C@H](C(=O)NCC(=O)N[C@@H](CC(C)C)C(=O)N1CCC[C@H]1C(=O)N[C@@H](C)C(=O)N[C@@H](CC(C)C)C(=O)N[C@H](C(=O)N[C@@H](CO)C(=O)N[C@@H](Cc1c[nH]c2ccccc12)C(=O)N[C@H](C(=O)N[C@@H](CCCCN)C(=O)N[C@@H](CCCNC(=N)N)C(=O)N[C@@H](CCCCN)C(=O)N[C@@H](CCCNC(=N)N)C(=O)N[C@@H](CCC(N)=O)C(=O)N[C@@H](CCC(N)=O)C(N)=O)[C@@H](C)CC)[C@@H](C)CC)[C@@H](C)O)[C@@H](C)O)C(C)C)C(C)C` [melittin], the “viability of vaginal epithelium cells” value in data set [1] is “dramatically decrease”. Moreover, in data set [2], the sperm motility result is reported as “impeded” and the sperm viability result is reported as “impeded”.
